The test addresses T1, purified full-length human recombinant aggrecanase-1 (rAgg1) (Homo sapiens, UniProt O75173).
T1 construct: purified full-length human recombinant aggrecanase-1
T1 sequence (O75173 213-837): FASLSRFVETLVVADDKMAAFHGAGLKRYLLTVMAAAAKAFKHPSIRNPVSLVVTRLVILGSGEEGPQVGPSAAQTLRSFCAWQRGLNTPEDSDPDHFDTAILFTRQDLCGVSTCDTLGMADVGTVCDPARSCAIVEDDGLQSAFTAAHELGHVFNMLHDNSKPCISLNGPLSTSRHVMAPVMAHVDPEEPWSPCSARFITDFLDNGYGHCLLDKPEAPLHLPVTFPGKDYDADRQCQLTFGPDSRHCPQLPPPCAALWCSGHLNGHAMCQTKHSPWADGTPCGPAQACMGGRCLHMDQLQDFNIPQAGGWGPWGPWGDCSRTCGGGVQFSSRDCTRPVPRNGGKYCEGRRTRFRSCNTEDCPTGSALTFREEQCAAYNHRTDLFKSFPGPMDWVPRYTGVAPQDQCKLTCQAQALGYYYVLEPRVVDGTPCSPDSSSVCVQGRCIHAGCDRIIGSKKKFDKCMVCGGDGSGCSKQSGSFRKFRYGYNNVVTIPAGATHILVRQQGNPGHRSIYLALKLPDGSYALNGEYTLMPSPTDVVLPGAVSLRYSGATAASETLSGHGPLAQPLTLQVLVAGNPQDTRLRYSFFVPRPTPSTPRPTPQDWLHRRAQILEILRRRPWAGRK
The experiment in a line: Aggrecanase-1 FRET Assay. It counts as biochemical.

Where [1] appears, read: rAgg1 5 μg/ml, substrate Abz-[…]-Dap(Dnp) 25 μM, 30° C., pH 7.5, read-out: IC50.

In US7923446B2, “Biaryl sulfonamides and methods for using same” (Wyeth LLC, priority 2003, dated 2011) one finds IC50 data, which are given here for 22 compounds.

For orientation: pIC50 means −log10 of the IC50, conventionally taken in molar units.

pIC50: −log10 of the molar value. Where two headings read alike, the source gives them in different places.

Description: The percentage activity remaining in the presence of inhibitor is plotted as a function of inhibitor concentration and the IC50 value is determined by fitting the data to the following equation: % activity=100IC50/(I0+IC50).
The following protocol was used: • Fluorimeter was started and temperature set to 30° C., about 30 min before setting up the assay. The following reagents are used: • Buffer: 50 mM HEPES, pH 7.5, 100 mM NaCl, 5 mM CaCl2, 0.1% CHAPS, 5% glycerol. • rAgg1: 5 μg/ml (final concentration in the assay): • Substrate: Abz-[sequence]-Dap(Dnp) (Abz:o-aminobenzoyl; Dnp: 2,4 dinitrophenyl) (Anaspec Inc), stored at 4° C.). Make a stock at 2 mg/ml in 100% DMSO. […] Store unused 100% DMSO stock at −80° C. […] Make up inhibitors at 10× starting concentration in 100% DMSO. Perform serial dilutions (in duplicate) across the nunc plate in 100% DMSO; • Dilution plates: Nunc, polypropylene low binding (Nalgene) • Assay plate: Fluoronunc (Nalgene) • Fluorimeter: GeminiXS (Molecular Devices).
The assay is performed as follows (The plates are set up so that the final column (12) is used for controls. Total reaction volume is 100 μl. Each compound is assayed in duplicate, so 4 compounds are screened per plate):
1) Add buffer to the entire 96-well plate (30 μl/well).
Add 20 μl/well to all wells. Mix 6 times.
Mix 6 times. To wells 12A-F, add 10× controls (see reference compounds below).
The reaction is monitored for 30-40 min at 30° C. λex: 340 nm and λem: 420 nm). The fluorescence is linear during this time and the slope of the line (Vmax/sec) represents the initial reaction rate, υ. The maximal rate of cleavage of substrate is determined in the absence of inhibitor.
The percent inhibition of activity in the presence of inhibitor is calculated as follows:
The IC50 was obtained by fitting the initial rate, υ, or % inhibition at each concentration of inhibitor to the following equation in Excel. y=(a−d)/(1+C/IC50)^n)+d
This model describes a sigmoidal curve with an adjustable baseline, a. y is the % inhbition or initial rate of reaction, C is the concentration of inhibitor under test. a is the limiting response as C approaches zero. As C increases without bound y tends toward its lower limit, d. y is halfway between the lower and upper asymptotes when C=IC50. n is the Hill coefficient. The sign of n is positive when the response increases with increasing dose and is negative when the response decreases with increasing dose (inhibition).

As for `Cc1cc2ccccc2nc1OCc1ccc(-c2ccc(S(=O)(=O)N[C@@H](C(=O)O)C(C)C)cc2)cc1` [Example 1A, 3-Methyl-2-[4′-(3-methyl-quinolin-2-yloxymethyl)-biphenyl-4-sulfonylamino]-butyric acid], the pIC50 under setting [1] was 6.70.
For the compound `CC(C)[C@@H](NS(=O)(=O)c1ccc(-c2ccc(COc3ccc(C(F)(F)F)cn3)cc2)cc1)C(=O)O` [Example 1B, 3-Methyl-2-[4-(5-trifluoromethyl-pyridin-2-yloxymethyl)-biphenyl-4-sulfonylamino]-butyric acid], under setting [1], the pIC50 is 6.10.
`Cc1cc(OCc2ccc(-c3ccc(S(=O)(=O)N[C@@H](C(=O)O)C(C)C)cc3)cc2)c2ccccc2n1` [Example 1D, D-3-Methyl-2-[4′-(2-methyl-quinolin-4-yloxymethyl)-biphenyl-4-sulfonylamino]-butyric acid]: the pIC50 under setting [1] is 6.40.
For the compound `CC(C)[C@@H](NS(=O)(=O)c1ccc(-c2ccc(COc3ccc4ccccc4n3)cc2)cc1)C(=O)O` [Example 1E], under setting [1], the pIC50 was 6.22.
Take `CC(C)[C@@H](NS(=O)(=O)c1ccc(-c2ccc(COc3nc4ccccc4s3)cc2)cc1)C(=O)O` [Example 1F, 2-[4′-(Benzothiazol-2-yloxymethyl)-biphenyl-4-sulfonylamino]-3-methyl-butyric acid]: the pIC50 under setting [1] is 5.82.
Still for that read-out and setting: in the case of `CC(C)[C@@H](NS(=O)(=O)c1ccc(-c2ccc(COc3cccc(C(=O)c4ccccc4)c3)cc2)cc1)C(=O)O` [Example 1H] it was 6.64.
Take `Cc1c(COc2ccc(-c3ccc(S(=O)(=O)N[C@@H](C(=O)O)C(C)C)cc3)cc2)oc2ccccc12` [Example 2A, D-3-Methyl-2-[4′-(3-methyl-benzofuran-2-ylmethoxy)-biphenyl-4-sulfonylamino]-butyric acid]: the pIC50 under setting [1] is 6.00.
For the compound `CC(C)[C@@H](NS(=O)(=O)c1ccc(-c2ccc(OCc3cc4ccccc4o3)cc2)cc1)C(=O)O` [Example 2B, D-2-[4′-(Benzofuran-2-ylmethoxy)-biphenyl-4-sulfonylamino]-3-methyl-butyric acid], the pIC50 under setting [1] is 5.82.
With `CC(C)[C@@H](NS(=O)(=O)c1ccc(-c2ccc(OCc3ccc4ccccc4c3)cc2)cc1)C(=O)O` [Example 2C, D-3-Methyl-2-[4′-(naphthalen-2-ylmethoxy)-biphenyl-4-sulfonylamino]-butyric acid], the pIC50 under setting [1] was 6.10.
Turning to `CC(C)[C@@H](NS(=O)(=O)c1ccc(-c2ccc(OCc3ccccc3)cc2)cc1)C(=O)O` [Example 2D, D-2-(4′-Benzyloxy-biphenyl-4-sulfonylamino)-3-methyl-butyric acid], the pIC50 under setting [1] is 5.26.
As to `Cc1cc(COc2ccc(-c3ccc(S(=O)(=O)N[C@@H](C(=O)O)C(C)C)cc3)cc2)c2ccccc2n1` [Example 2K, D-3-Methyl-2-[4′-(2-methyl-quinolin-4-ylmethoxy)-biphenyl-4-sulfonylamino]-butyric acid], the pIC50 under setting [1] is 6.30.
Take `CC(=O)NCc1ccc(-c2ccc(S(=O)(=O)N[C@@H](C(=O)O)C(C)C)cc2)cc1` [Example 5A, D-2-[4′-(Acetylamino-methyl)-biphenyl-4-sulfonylamino]-3-methyl-butyric acid]: the pIC50 under setting [1] is 6.40.
`CC(C)[C@@H](NS(=O)(=O)c1ccc(-c2ccc(OC(=O)Nc3ccc(F)cc3)cc2)cc1)C(=O)O` [Example 6A, 2-[4′-(4-Fluoro-phenylcarbamoyloxy)-biphenyl-4-sulfonylamino]-3-methyl-butyric acid]: the pIC50 is 5.44.
As to `CC(C)[C@@H](NS(=O)(=O)c1ccc(-c2ccc(OC(=O)Nc3ccc(Oc4ccccc4)cc3)cc2)cc1)C(=O)O` [Example 6B, D-3-Methyl-2-[4′-(4-phenoxy-phenylcarbamoyloxy)-biphenyl-4-sulfonylamino]-butyric acid], the pIC50 was 6.22.
As for `CC(C)[C@@H](NS(=O)(=O)c1ccc(-c2ccc(OC(=O)Nc3ccc4ccccc4c3)cc2)cc1)C(=O)O` [Example 6C, D-3-Methyl-2-[4′-(naphthalen-2-ylcarbamoyloxy)-biphenyl-4-sulfonylamino]-butyric acid], the pIC50 is 5.96.
Turning to `CC(C)[C@@H](NS(=O)(=O)c1ccc(-c2ccc(OC(=O)Nc3cc4ccccc4o3)cc2)cc1)C(=O)O` [Example 6S, N-[(4′-{[(1-benzofuran-2-ylamino)carbonyl]oxy}-1,1′-biphenyl-4-yl)sulfonyl]-D-valine], the pIC50 is 5.35.
As for `Cc1c(C(=O)Oc2ccc(-c3ccc(S(=O)(=O)N[C@@H](C(=O)O)C(C)C)cc3)cc2)oc2ccccc12` [Example 7A, D-3-Methyl-benzofuran-2-carboxylic acid 4′-(1-carboxy-2-methyl-propylsulfamoyl)-biphenyl-4-yl ester], the pIC50 under setting [1] is 7.05.
The same measure, in the same setting: in the case of `CC(C)[C@@H](NS(=O)(=O)c1ccc(-c2ccc(OC(=O)c3cc4ccccc4o3)cc2)cc1)C(=O)O` [Example 7B, Benzofuran-2-carboxylic acid 4′-(1-carboxy-2-methyl-propylsulfamoyl)-biphenyl-4-yl ester] it was 6.46; in that of `COc1cc(-c2ccc(S(=O)(=O)N[C@@H](C(=O)O)C(C)C)cc2)ccc1OCc1ccc2ccccc2c1` [Example 11A, 3-Methyl-2-[4′-(naphthalen-2-ylmethoxy)-3′-methoxy-biphenyl-4-sulfonylamino]-butyric acid], 5.05.
Consider `COc1cc(COc2ccc(-c3ccc(S(=O)(=O)N[C@@H](C(=O)O)C(C)C)cc3)cc2OC)cc(OC)c1` [Example 11B, 2-[4′-(3,5-Dimethoxy-benzyloxy)-3′-methoxy-biphenyl-4-sulfonylamino]-3-methyl-butyric acid], for which the pIC50 under setting [1] is 4.78.
In the case of `CC(C)[C@@H](NS(=O)(=O)c1ccc(-c2ccc(O)cc2)cc1OC(F)(F)F)C(=O)O` [Example 12A, 2-(4′-Hydroxy-3-trifluoromethoxy-biphenyl-4-sulfonylamino)-3-methyl-butyric acid], the pIC50 under setting [1] is 3.70.
On to `CC(C)[C@@H](NS(=O)(=O)c1ccc(-c2ccc(O)cc2)cc1C(F)(F)F)C(=O)O` [Example 12B, 2-(4′-Hydroxy-3-trifluoromethyl-biphenyl-4-sulfonylamino)-3-methyl-butyric acid], for which, under setting [1], the pIC50 was 4.17.
